Assay results published in ChEMBL document CHEMBL1909046, “DrugMatrix in vitro pharmacology data”.

Target: Delta-type opioid receptor (Homo sapiens, UniProt P41143); further: in other assays of this panel Not Active means under 50% inhibition at 10 µM
Type: cell membranes, Membrane
Settings: hek293

Chain of Delta-type opioid receptor (P41143 whole entry): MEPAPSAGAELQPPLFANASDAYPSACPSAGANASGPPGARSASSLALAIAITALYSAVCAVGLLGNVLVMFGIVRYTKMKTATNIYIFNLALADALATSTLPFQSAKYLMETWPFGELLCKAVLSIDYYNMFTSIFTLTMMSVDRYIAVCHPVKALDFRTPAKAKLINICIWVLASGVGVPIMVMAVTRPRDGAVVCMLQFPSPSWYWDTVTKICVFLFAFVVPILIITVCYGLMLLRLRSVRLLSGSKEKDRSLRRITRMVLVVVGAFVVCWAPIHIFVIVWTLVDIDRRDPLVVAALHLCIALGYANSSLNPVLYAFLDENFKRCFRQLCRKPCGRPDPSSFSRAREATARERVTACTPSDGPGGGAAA

SMILES | IC50
C[n+]1ccc(-c2cc[n+](C)cc2)cc1.[Cl-].[Cl-] [PARAQUAT DICHLORIDE] | Not Active
CCn1cc(C(=O)O)c(=O)c2cnc(N3CCCC3)nc21 [PIROMIDIC ACID] | Not Active
C[n+]1ccccc1/C=N/O.[Cl-] [PRALIDOXIME CHLORIDE] | Not Active
COc1cc2nc(N3CCN(C(=O)c4ccco4)CC3)nc(N)c2cc1OC [PRAZOSIN] | Not Active
C[C@]12C=CC(=O)C=C1CC[C@@H]1[C@@H]2[C@@H](O)C[C@@]2(C)[C@H]1CC[C@]2(O)C(=O)CO [PREDNISOLONE] | Not Active
CC(=O)[C@H]1[C@H](C#N)C[C@H]2[C@@H]3CC=C4C[C@@H](O)CC[C@]4(C)[C@H]3CC[C@@]21C [PREGNENOLONE CARBONITRILE] | Not Active
CCCN(CCC)S(=O)(=O)c1ccc(C(=O)O)cc1 [PROBENECID] | Not Active
CCCOc1ccc(C(=O)OCCN(CC)CC)cc1N [PROPARACAINE] | Not Active

Target: C-C chemokine receptor type 2 (Homo sapiens, UniProt P41597); further: in other assays of this panel Not Active means under 50% inhibition at 10 µM
Sequence (P41597 whole entry): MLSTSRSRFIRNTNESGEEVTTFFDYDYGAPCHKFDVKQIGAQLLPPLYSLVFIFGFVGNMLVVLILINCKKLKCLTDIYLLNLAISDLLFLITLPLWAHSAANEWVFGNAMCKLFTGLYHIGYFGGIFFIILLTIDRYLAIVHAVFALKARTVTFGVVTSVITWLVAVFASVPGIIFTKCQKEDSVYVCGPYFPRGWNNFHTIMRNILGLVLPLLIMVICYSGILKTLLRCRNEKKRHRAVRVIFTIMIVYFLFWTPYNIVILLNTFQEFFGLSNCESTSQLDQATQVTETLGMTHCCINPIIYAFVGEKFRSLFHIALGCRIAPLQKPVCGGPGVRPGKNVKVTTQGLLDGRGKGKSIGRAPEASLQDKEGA
Type: cell membranes, Membrane
Settings: cho-k1

SMILES | IC50
C[n+]1ccc(-c2cc[n+](C)cc2)cc1.[Cl-].[Cl-] [PARAQUAT DICHLORIDE] | Not Active
CCn1cc(C(=O)O)c(=O)c2cnc(N3CCCC3)nc21 [PIROMIDIC ACID] | Not Active
C[n+]1ccccc1/C=N/O.[Cl-] [PRALIDOXIME CHLORIDE] | Not Active
COc1cc2nc(N3CCN(C(=O)c4ccco4)CC3)nc(N)c2cc1OC [PRAZOSIN] | Not Active
C[C@]12C=CC(=O)C=C1CC[C@@H]1[C@@H]2[C@@H](O)C[C@@]2(C)[C@H]1CC[C@]2(O)C(=O)CO [PREDNISOLONE] | Not Active
CC(=O)[C@H]1[C@H](C#N)C[C@H]2[C@@H]3CC=C4C[C@@H](O)CC[C@]4(C)[C@H]3CC[C@@]21C [PREGNENOLONE CARBONITRILE] | Not Active
CCCN(CCC)S(=O)(=O)c1ccc(C(=O)O)cc1 [PROBENECID] | Not Active
CCCOc1ccc(C(=O)OCCN(CC)CC)cc1N [PROPARACAINE] | Not Active

Target: T1, Leukotriene C4 synthase (Cavia porcellus, UniProt A6XA80);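 further: enzyme inhibition assay of leukotriene C4 synthase, using LTA4 as the substrate; in other assays of this panel Not Active means under 50% inhibition at 10 µM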
T1 sequence (A6XA80 whole entry): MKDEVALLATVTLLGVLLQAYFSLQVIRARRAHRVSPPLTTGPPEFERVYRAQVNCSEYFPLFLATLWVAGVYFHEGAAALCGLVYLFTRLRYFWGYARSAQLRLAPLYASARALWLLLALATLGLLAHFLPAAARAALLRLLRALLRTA
Type: tissue-based, Lung
Settings: not given

SMILES | IC50
C[n+]1ccc(-c2cc[n+](C)cc2)cc1.[Cl-].[Cl-] [PARAQUAT DICHLORIDE] | Not Active
CCn1cc(C(=O)O)c(=O)c2cnc(N3CCCC3)nc21 [PIROMIDIC ACID] | Not Active
C[n+]1ccccc1/C=N/O.[Cl-] [PRALIDOXIME CHLORIDE] | Not Active
COc1cc2nc(N3CCN(C(=O)c4ccco4)CC3)nc(N)c2cc1OC [PRAZOSIN] | Not Active
C[C@]12C=CC(=O)C=C1CC[C@@H]1[C@@H]2[C@@H](O)C[C@@]2(C)[C@H]1CC[C@]2(O)C(=O)CO [PREDNISOLONE] | Not Active
CC(=O)[C@H]1[C@H](C#N)C[C@H]2[C@@H]3CC=C4C[C@@H](O)CC[C@]4(C)[C@H]3CC[C@@]21C [PREGNENOLONE CARBONITRILE] | Not Active
CCCN(CCC)S(=O)(=O)c1ccc(C(=O)O)cc1 [PROBENECID] | Not Active
CCCOc1ccc(C(=O)OCCN(CC)CC)cc1N [PROPARACAINE] | Not Active

Target: C-C chemokine receptor type 5 (Homo sapiens, UniProt P51681); further: in other assays of this panel Not Active means under 50% inhibition at 10 µM
Sequence (P51681 whole entry): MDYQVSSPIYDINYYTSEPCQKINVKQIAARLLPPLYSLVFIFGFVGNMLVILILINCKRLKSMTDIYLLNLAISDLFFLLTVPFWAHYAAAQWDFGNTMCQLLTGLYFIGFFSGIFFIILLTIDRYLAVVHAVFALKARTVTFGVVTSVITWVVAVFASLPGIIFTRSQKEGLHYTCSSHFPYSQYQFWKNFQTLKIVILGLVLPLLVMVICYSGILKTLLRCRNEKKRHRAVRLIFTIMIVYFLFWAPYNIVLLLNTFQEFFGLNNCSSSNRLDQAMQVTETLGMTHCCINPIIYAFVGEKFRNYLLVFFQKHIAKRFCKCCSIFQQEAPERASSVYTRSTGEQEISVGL
Type: cell membranes, Membrane
Settings: hek293

SMILES | IC50
C[n+]1ccc(-c2cc[n+](C)cc2)cc1.[Cl-].[Cl-] [PARAQUAT DICHLORIDE] | Not Active
CCn1cc(C(=O)O)c(=O)c2cnc(N3CCCC3)nc21 [PIROMIDIC ACID] | Not Active
C[n+]1ccccc1/C=N/O.[Cl-] [PRALIDOXIME CHLORIDE] | Not Active
COc1cc2nc(N3CCN(C(=O)c4ccco4)CC3)nc(N)c2cc1OC [PRAZOSIN] | Not Active
C[C@]12C=CC(=O)C=C1CC[C@@H]1[C@@H]2[C@@H](O)C[C@@]2(C)[C@H]1CC[C@]2(O)C(=O)CO [PREDNISOLONE] | Not Active
CC(=O)[C@H]1[C@H](C#N)C[C@H]2[C@@H]3CC=C4C[C@@H](O)CC[C@]4(C)[C@H]3CC[C@@]21C [PREGNENOLONE CARBONITRILE] | Not Active
CCCN(CCC)S(=O)(=O)c1ccc(C(=O)O)cc1 [PROBENECID] | Not Active
CCCOc1ccc(C(=O)OCCN(CC)CC)cc1N [PROPARACAINE] | Not Active

Target: Beta-1 adrenergic receptor (Homo sapiens, UniProt P08588)
Sequence (P08588 whole entry): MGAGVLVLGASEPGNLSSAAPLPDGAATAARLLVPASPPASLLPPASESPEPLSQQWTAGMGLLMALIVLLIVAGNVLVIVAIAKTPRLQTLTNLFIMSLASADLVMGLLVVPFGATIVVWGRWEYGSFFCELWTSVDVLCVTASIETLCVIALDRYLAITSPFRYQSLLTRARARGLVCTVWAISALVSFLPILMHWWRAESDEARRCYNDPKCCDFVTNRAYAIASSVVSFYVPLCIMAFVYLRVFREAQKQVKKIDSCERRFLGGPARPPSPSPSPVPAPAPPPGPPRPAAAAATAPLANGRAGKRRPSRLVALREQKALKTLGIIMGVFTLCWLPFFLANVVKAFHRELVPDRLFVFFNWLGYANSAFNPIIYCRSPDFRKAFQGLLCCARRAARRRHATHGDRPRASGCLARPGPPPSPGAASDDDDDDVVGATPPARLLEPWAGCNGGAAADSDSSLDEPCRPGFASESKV
Experiment: DRUGMATRIX: Adrenergic beta1 radioligand binding (ligand: [125I] Cyanopindolol)
Type: cell membranes, CHO-K1, Membrane
Settings: cho-k1; Not Active = under 50% inhibition at 10 µM

SMILES | IC50
C[n+]1ccc(-c2cc[n+](C)cc2)cc1.[Cl-].[Cl-] [PARAQUAT DICHLORIDE] | Not Active
CCn1cc(C(=O)O)c(=O)c2cnc(N3CCCC3)nc21 [PIROMIDIC ACID] | Not Active
C[n+]1ccccc1/C=N/O.[Cl-] [PRALIDOXIME CHLORIDE] | Not Active
COc1cc2nc(N3CCN(C(=O)c4ccco4)CC3)nc(N)c2cc1OC [PRAZOSIN] | Not Active
C[C@]12C=CC(=O)C=C1CC[C@@H]1[C@@H]2[C@@H](O)C[C@@]2(C)[C@H]1CC[C@]2(O)C(=O)CO [PREDNISOLONE] | Not Active
CC(=O)[C@H]1[C@H](C#N)C[C@H]2[C@@H]3CC=C4C[C@@H](O)CC[C@]4(C)[C@H]3CC[C@@]21C [PREGNENOLONE CARBONITRILE] | Not Active
CCCN(CCC)S(=O)(=O)c1ccc(C(=O)O)cc1 [PROBENECID] | Not Active
CCCOc1ccc(C(=O)OCCN(CC)CC)cc1N [PROPARACAINE] | Not Active

Test system: not listed separately
Experiment: DRUGMATRIX: Tumor Necrosis Factor (TNF), Non-Selective radioligand binding (ligand: [125I] TNF-alpha)
Type: cell membranes, Membrane
Settings: u-937; Not Active = under 50% inhibition at 10 µM

SMILES | IC50 | Ki
C[n+]1ccc(-c2cc[n+](C)cc2)cc1.[Cl-].[Cl-] [PARAQUAT DICHLORIDE] | Not Active | Not Active
CCn1cc(C(=O)O)c(=O)c2cnc(N3CCCC3)nc21 [PIROMIDIC ACID] | Not Active | Not Active
C[n+]1ccccc1/C=N/O.[Cl-] [PRALIDOXIME CHLORIDE] | Not Active | Not Active
COc1cc2nc(N3CCN(C(=O)c4ccco4)CC3)nc(N)c2cc1OC [PRAZOSIN] | Not Active | Not Active
C[C@]12C=CC(=O)C=C1CC[C@@H]1[C@@H]2[C@@H](O)C[C@@]2(C)[C@H]1CC[C@]2(O)C(=O)CO [PREDNISOLONE] | Not Active | Not Active
CC(=O)[C@H]1[C@H](C#N)C[C@H]2[C@@H]3CC=C4C[C@@H](O)CC[C@]4(C)[C@H]3CC[C@@]21C [PREGNENOLONE CARBONITRILE] | Not Active | Not Active
CCCN(CCC)S(=O)(=O)c1ccc(C(=O)O)cc1 [PROBENECID] | Not Active | Not Active
CCCOc1ccc(C(=O)OCCN(CC)CC)cc1N [PROPARACAINE] | Not Active | Not Active

Target: Nitric oxide synthase 1 (Rattus norvegicus, UniProt P29476); further: in other assays of this panel Not Active means under 50% inhibition at 10 µM
Sequence (P29476 whole entry): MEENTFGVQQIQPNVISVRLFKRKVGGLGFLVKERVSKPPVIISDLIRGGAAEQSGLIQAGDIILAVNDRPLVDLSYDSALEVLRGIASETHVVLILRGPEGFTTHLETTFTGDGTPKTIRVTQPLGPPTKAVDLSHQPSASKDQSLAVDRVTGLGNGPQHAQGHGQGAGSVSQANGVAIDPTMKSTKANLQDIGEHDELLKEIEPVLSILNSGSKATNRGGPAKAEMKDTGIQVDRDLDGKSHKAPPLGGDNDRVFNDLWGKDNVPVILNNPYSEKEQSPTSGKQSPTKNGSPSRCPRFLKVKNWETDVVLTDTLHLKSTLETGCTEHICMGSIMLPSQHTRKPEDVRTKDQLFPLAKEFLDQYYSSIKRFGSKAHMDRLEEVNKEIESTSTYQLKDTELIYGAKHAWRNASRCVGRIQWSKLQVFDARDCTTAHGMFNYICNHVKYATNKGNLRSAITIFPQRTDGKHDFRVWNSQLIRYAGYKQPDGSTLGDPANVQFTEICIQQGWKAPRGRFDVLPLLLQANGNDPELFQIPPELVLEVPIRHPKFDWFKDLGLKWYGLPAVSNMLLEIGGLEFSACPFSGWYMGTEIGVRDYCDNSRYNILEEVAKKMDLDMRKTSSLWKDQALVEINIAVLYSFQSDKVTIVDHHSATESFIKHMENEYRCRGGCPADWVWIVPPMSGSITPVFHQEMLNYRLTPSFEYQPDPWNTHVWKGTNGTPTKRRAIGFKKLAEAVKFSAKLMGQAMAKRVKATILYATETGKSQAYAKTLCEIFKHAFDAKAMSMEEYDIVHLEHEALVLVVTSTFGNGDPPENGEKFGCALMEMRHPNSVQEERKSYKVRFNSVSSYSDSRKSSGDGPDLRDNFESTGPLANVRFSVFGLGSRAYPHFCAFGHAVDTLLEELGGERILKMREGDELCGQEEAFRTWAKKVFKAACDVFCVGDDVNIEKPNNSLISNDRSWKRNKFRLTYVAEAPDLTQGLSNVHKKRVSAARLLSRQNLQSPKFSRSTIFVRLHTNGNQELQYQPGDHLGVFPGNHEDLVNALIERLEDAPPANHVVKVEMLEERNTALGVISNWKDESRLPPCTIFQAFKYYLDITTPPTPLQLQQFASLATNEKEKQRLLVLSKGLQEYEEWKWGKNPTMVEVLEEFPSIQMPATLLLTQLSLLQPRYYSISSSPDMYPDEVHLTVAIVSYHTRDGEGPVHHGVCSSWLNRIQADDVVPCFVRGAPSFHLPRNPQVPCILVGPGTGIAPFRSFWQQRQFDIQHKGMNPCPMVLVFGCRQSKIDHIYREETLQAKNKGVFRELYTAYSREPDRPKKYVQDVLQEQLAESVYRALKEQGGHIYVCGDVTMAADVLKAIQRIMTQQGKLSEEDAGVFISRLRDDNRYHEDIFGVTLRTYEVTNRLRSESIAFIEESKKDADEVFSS
Type: tissue-based, Cerebellum
Settings: not given

SMILES | IC50
C[n+]1ccc(-c2cc[n+](C)cc2)cc1.[Cl-].[Cl-] [PARAQUAT DICHLORIDE] | Not Active
CCn1cc(C(=O)O)c(=O)c2cnc(N3CCCC3)nc21 [PIROMIDIC ACID] | Not Active
C[n+]1ccccc1/C=N/O.[Cl-] [PRALIDOXIME CHLORIDE] | Not Active
COc1cc2nc(N3CCN(C(=O)c4ccco4)CC3)nc(N)c2cc1OC [PRAZOSIN] | Not Active
C[C@]12C=CC(=O)C=C1CC[C@@H]1[C@@H]2[C@@H](O)C[C@@]2(C)[C@H]1CC[C@]2(O)C(=O)CO [PREDNISOLONE] | Not Active
CC(=O)[C@H]1[C@H](C#N)C[C@H]2[C@@H]3CC=C4C[C@@H](O)CC[C@]4(C)[C@H]3CC[C@@]21C [PREGNENOLONE CARBONITRILE] | Not Active
CCCN(CCC)S(=O)(=O)c1ccc(C(=O)O)cc1 [PROBENECID] | Not Active
CCCOc1ccc(C(=O)OCCN(CC)CC)cc1N [PROPARACAINE] | Not Active

Target: Platelet-activating factor receptor (Homo sapiens, UniProt P25105); further: in other assays of this panel Not Active means under 50% inhibition at 10 µM
Sequence (P25105 whole entry): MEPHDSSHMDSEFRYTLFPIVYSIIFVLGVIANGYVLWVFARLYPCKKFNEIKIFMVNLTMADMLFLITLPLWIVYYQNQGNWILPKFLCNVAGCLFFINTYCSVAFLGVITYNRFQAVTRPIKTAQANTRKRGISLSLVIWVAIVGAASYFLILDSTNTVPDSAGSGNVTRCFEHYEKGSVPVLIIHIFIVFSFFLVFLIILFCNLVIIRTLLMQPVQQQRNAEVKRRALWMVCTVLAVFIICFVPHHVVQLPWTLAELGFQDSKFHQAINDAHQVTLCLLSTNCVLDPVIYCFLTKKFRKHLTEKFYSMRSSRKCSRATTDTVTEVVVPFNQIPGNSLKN
Type: tissue-based
Settings: not given

SMILES | IC50
C[n+]1ccc(-c2cc[n+](C)cc2)cc1.[Cl-].[Cl-] [PARAQUAT DICHLORIDE] | Not Active
CCn1cc(C(=O)O)c(=O)c2cnc(N3CCCC3)nc21 [PIROMIDIC ACID] | Not Active
C[n+]1ccccc1/C=N/O.[Cl-] [PRALIDOXIME CHLORIDE] | Not Active
COc1cc2nc(N3CCN(C(=O)c4ccco4)CC3)nc(N)c2cc1OC [PRAZOSIN] | Not Active
C[C@]12C=CC(=O)C=C1CC[C@@H]1[C@@H]2[C@@H](O)C[C@@]2(C)[C@H]1CC[C@]2(O)C(=O)CO [PREDNISOLONE] | Not Active
CC(=O)[C@H]1[C@H](C#N)C[C@H]2[C@@H]3CC=C4C[C@@H](O)CC[C@]4(C)[C@H]3CC[C@@]21C [PREGNENOLONE CARBONITRILE] | Not Active
CCCN(CCC)S(=O)(=O)c1ccc(C(=O)O)cc1 [PROBENECID] | Not Active
CCCOc1ccc(C(=O)OCCN(CC)CC)cc1N [PROPARACAINE] | Not Active

Test system: not listed separately
Experiment: DRUGMATRIX: Sodium/nucleoside co-transporter radioligand binding (ligand: nitrobenzylthioinosine)
Type: cell membranes, Cavia porcellus, Dunkin-Hartley, Cerebral cortex, Membrane
Settings: Not Active = under 50% inhibition at 10 µM

SMILES | IC50 | Ki
C[n+]1ccc(-c2cc[n+](C)cc2)cc1.[Cl-].[Cl-] [PARAQUAT DICHLORIDE] | Not Active | Not Active
CCn1cc(C(=O)O)c(=O)c2cnc(N3CCCC3)nc21 [PIROMIDIC ACID] | Not Active | Not Active
C[n+]1ccccc1/C=N/O.[Cl-] [PRALIDOXIME CHLORIDE] | Not Active | Not Active
COc1cc2nc(N3CCN(C(=O)c4ccco4)CC3)nc(N)c2cc1OC [PRAZOSIN] | Not Active | Not Active
C[C@]12C=CC(=O)C=C1CC[C@@H]1[C@@H]2[C@@H](O)C[C@@]2(C)[C@H]1CC[C@]2(O)C(=O)CO [PREDNISOLONE] | Not Active | Not Active
CC(=O)[C@H]1[C@H](C#N)C[C@H]2[C@@H]3CC=C4C[C@@H](O)CC[C@]4(C)[C@H]3CC[C@@]21C [PREGNENOLONE CARBONITRILE] | Not Active | Not Active
CCCN(CCC)S(=O)(=O)c1ccc(C(=O)O)cc1 [PROBENECID] | Not Active | Not Active
CCCOc1ccc(C(=O)OCCN(CC)CC)cc1N [PROPARACAINE] | Not Active | Not Active
